Consider 39 compounds from patent US9938301B2, “Dihydropyrimido fused ring derivative as HBV inhibitor” (QILU PHARMACEUTICAL CO., LTD., priority 2014, dated 2018).

The subject of this assay is HBV DNA in HepG2.2.15 cells. As to the kind of experiment: HBV in vitro dot-blot hybridization test. The class given is cell-based, Hepatitis B virus. On the procedure: • 1. Purpose of the test: • The content of HBV DNA in HepG2.2.15 cells was detected by dot-blot hybridization test to evaluate an inhibitory action of the compound on HBV with an EC50 value as an indicator. • 2. Experimental materials: • 2.1 Cell lines: HepG2.2.15 Cells • HepG2.2.15 cell culture media (DMEM/F12, Invitrogen-11330057; 10% serum Invitrogen-10099141; 100 units/mL Penicillin and 10 μg/mL Streptomycin, Invitrogen-15140122; 1% non-essential amino acid, Invitrogen-11140076; 2 mM L-GLUTAMINE, Invitrogen-25030081; 300 µg/ml Geneticin, Invitrogen-10131027 • 2.2 Reagents: • Trypsin (I Invitrogen-25300062) • DPBS (Hyclone-SH30028.01B) • DMSO (Sigma-D2650-100ML) • 96-well cell-culture plate (Corning-3599) • CO2 incubator (HERA-CELL-240) • 20×SSC (Bio-serve Co. Ltd) • Tris-HCl (Aldirch-154563-1KG) • NaOH (Sinopharm 10019718) • NaCl (Sinopharm 10019308) • Hybridization solution (Major BioTech Co. Ltd, IMMUNE GOLD-HYB-500) • DIG Wash and Block Buffer set (Roche-11585762001) • Anti-digoxigenin-AP, Fab fragments from sheep (Roche-11093274910) • 2.3 Materials and Instruments: • Positively-Charged Nylon Membrane (GE-RPN2250B) • Transfer Membrane Instrument (Bio-Rad, 170-6545) • Hybridization Oven (HL-2000 Hybrilinker) • 3. Testing steps and Methods: • 3.1 HepG2.2.15 cells (4×10^4 cells/well) were planted into a 96-well plate, and at 37° C., 5% CO2 cultured overnight. • 3.2 On Day 2, the compounds were diluted in totally 6 concentrations with a dilution gradient of five times. The compounds at different concentrations were added into the culture wells in duplicate. The final concentration of DMSO in the culture media was 1%. 1 μM GLS4 was used as 100% inhibition control; 1% DMSO as 0% inhibition control. • 3.3 On Day 5, replacing with the fresh culture media containing the compound was performed. • 3.4 On Day 8 and Day 9, the culture media in the culture wells was removed, and the cells were harvested for dot-blot hybridization. • The lysate was added into a culture well, and at 37° C. incubating for half an hour to disintegrate cells; the supernatant was obtained by centrifugation and transferred into a new microplate; a denaturation solution was added, after sufficient mixing the denatured sample was transferred and imprinted onto a Nylon membrane, the nucleic acid was fixed onto the membrane by UV cross-linking. • Pre-hybridization: the membrane was incubated at 60° C. in a hybridization solution for 1 hour. • Hybridization: heating the denatured digoxin-labelled HBV DNA probe and incubating at 60° C. overnight. • Membrane Washing: performing high strigency washing twice, low strigency washing for 3 times. • Blocking: incubating the membrane at room temperature in a blocking solution for 30-60 minutes. • Hybridization: diluting the Antibody Solution with the blocking solution, in which the membrane was placed and incubated at room temperature for 30-60 minutes. • Developing: washing the membrane in a Detection Buffer for 5 minutes, followed by adding a developing solution, pressing and exposing. • The photos was saved in tiff format, and a gray value of the dot was quantified with quantity one software. • 3.5 Data Analysis: • 3.5.1 The inhibition percentage was calculated: % Inh.=[1−(sample dot gray value−1 μM GLS4 dot gray value 1)/(DMSO control dot gray value−1 μM GLS4 dot gray value 1)]×100. • 3.5.2 Calculating EC50: the concentration of the compound for 50% inhibition of HBV (EC50) was calculated by using GraphPad Prism Software. • 4.

Where [1] appears, read: Hepatitis B virus, HepG2.2.15, dot-blot hybridization assay, read-out: Concentration for 50% inhibition of HBV (EC50)value.
The mark [2] stands for this setting: Hepatitis B virus, HepG2.2.15, summary list of target compounds, Examples 1-165 (same as Table 2), read-out: BIOACTIVITY (inhibitory actions on HBV DNA, EC50).
[3] abbreviates: summary list of target compounds, Examples 1-165 (same as Table 2), read-out: BIOACTIVITY (inhibitory actions on HBV DNA, EC50).
Where [4] appears, read: dot-blot hybridization assay, read-out: Concentration for 50% inhibition of HBV (EC50)value.

Like-named read-outs stand apart in the source and are kept apart here.

`CCOC(=O)C1=C2CCCN2C(c2nccs2)=NC1c1ccc(F)cc1Cl` (racemic) [Example 1]: the EC50 under setting [1] is 100 to 500 nM and the EC50 under setting [2] is 100 to 500 nM.

`CCOC(=O)C1=C2C(N(C)CCO)CCN2C(c2nccs2)=NC1c1ccc(F)cc1Cl` (racemic) [Example 2]: the EC50 under setting [1] lay in the range of 1000 to 5000 nM and the EC50 under setting [2] was in the range of 1000 to 5000 nM.

Turning to `CCOC(=O)C1=C2[C@@H](C(N)=O)CCN2C(c2nccs2)=N[C@H]1c1ccc(F)cc1Cl` (racemic) [Example 3], the EC50 reads like this: under setting [1], 100 to 500 nM; under setting [2], 100 to 500 nM.

For the compound `CCOC(=O)C1=C2CCCN2C(c2nccs2)=NC1c1ccc(F)cc1Br` (racemic) [Example 4], the EC50 under setting [1] was 100 to 500 nM and the EC50 under setting [2] lay in the range of 100 to 500 nM.

On to `CCOC(=O)C1=C2C[C@@H](CO)CN2C(c2nccs2)=NC1c1ccc(F)cc1Br` (mixture of isomers) [Example 8], for which the EC50 under setting [1] lay in the range of 100 to 500 nM and the EC50 under setting [2] was in the range of 100 to 500 nM.

As to `CCOC(=O)C1=C2C[C@@H](CO)CN2C(c2nccs2)=NC1c1ccc(F)cc1Br` (mixture of isomers) [Example 9], the EC50 under setting [3] fell in the range of 100 to 500 nM.

In the case of `COCC1CC2=C(C(=O)OC)C(c3ccc(F)cc3Br)N=C(c3nccs3)N2C1` (racemic) [Example 10], the EC50 is, setting by setting: under setting [1], 1000 to 5000 nM; under setting [2], 1000 to 5000 nM.

Regarding `CCOC(=O)C1=C2C[C@@H](CC#N)CN2C(c2nccs2)=NC1c1ccc(F)cc1Br` (mixture of isomers) [Example 11], the EC50 is 1000 to 5000 nM under setting [4] and 1000 to 5000 nM under setting [3].

On to `CCOC(=O)C1=C2C[C@@H](CC#N)CN2C(c2nccs2)=NC1c1ccc(F)cc1Br` (mixture of isomers) [Example 12], for which the EC50 by setting is: under setting [4], 100 to 500 nM; under setting [3], 100 to 500 nM.

Turning to `CCOC(=O)C1=C2C[C@@H](CN3CCOCC3)CN2C(c2nccs2)=NC1c1ccc(F)cc1Br` (mixture of isomers) [Example 17], the EC50 by setting is: under setting [1], 1000 to 5000 nM; under setting [2], 1000 to 5000 nM.

Take `CCOC(=O)C1=C2C[C@@H](CN3CCOCC3)CN2C(c2nccs2)=NC1c1ccc(F)cc1Br` (mixture of isomers) [Example 18]: the EC50 under setting [3] is 1000 to 5000 nM.

As to `CCOC(=O)C1=C2CC(C(=O)O)CN2C(c2nccs2)=NC1c1ccc(F)cc1Br` (racemic) [Example 23], the EC50 fell in the range of 1000 to 5000 nM under setting [1] and 1000 to 5000 nM under setting [2].

Turning to `CCOC(=O)C1=C2C[C@@H](C#N)CN2C(c2nccs2)=NC1c1ccc(F)cc1Br` (mixture of isomers) [Example 26], the EC50 is, setting by setting: under setting [4], 500 to 1000 nM; under setting [3], 500 to 1000 nM.

For the compound `CCOC(=O)C1=C2C[C@@H](C#N)CN2C(c2nccs2)=NC1c1ccc(F)cc1Br` (mixture of isomers) [Example 27], the EC50 is 100 to 500 nM under setting [4] and 100 to 500 nM under setting [3].

In the case of `CCOC(=O)C1=C2C[C@@H](C(N)=O)CN2C(c2nccs2)=NC1c1ccc(F)cc1Br` (mixture of isomers) [Example 28], the EC50 by setting is: under setting [1], 100 to 500 nM; under setting [2], 100 to 500 nM.

In the case of `CCOC(=O)C1=C2C[C@@H](C(N)=O)CN2C(c2nccs2)=NC1c1ccc(F)cc1Br` (mixture of isomers) [Example 29], the EC50 under setting [3] was 100 to 500 nM.

With `CCOC(=O)C1=C2CC(NC(=O)OC)CN2C(c2nccs2)=N[C@H]1c1ccc(F)cc1Br` (mixture of isomers) [Example 42], the EC50 under setting [1] was below 100 nM and the EC50 under setting [2] is below 100 nM.

`CCOC(=O)C1=C2CC(NC(=O)OC(C)C)CN2C(c2nccs2)=N[C@H]1c1ccc(F)cc1Br` (mixture of isomers) [Example 45]: the EC50 is below 100 nM under setting [1] and below 100 nM under setting [2].

For the compound `CCOC(=O)C1=C2CC(NC(C)=O)CN2C(c2nccs2)=N[C@H]1c1ccc(F)cc1Br` (mixture of isomers) [Example 48], the EC50 under setting [1] was in the range of 100 to 500 nM and the EC50 under setting [2] is 100 to 500 nM.

For `CCOC(=O)C1=C2CC(NC(=O)NC)CN2C(c2nccs2)=N[C@H]1c1ccc(F)cc1Br` (mixture of isomers) [Example 51], the EC50 runs as follows: under setting [1], 100 to 500 nM; under setting [2], 100 to 500 nM.

As for `CCOC(=O)C1=C2CC(NS(=O)(=O)NC)CN2C(c2nccs2)=N[C@H]1c1ccc(F)cc1Br` (mixture of isomers) [Example 54], the EC50 under setting [1] is below 100 nM and the EC50 under setting [2] is below 100 nM.

On to `CCOC(=O)C1=C2CC(NS(C)(=O)=O)CN2C(c2nccs2)=N[C@H]1c1ccc(F)cc1Br` (mixture of isomers) [Example 57], for which the EC50 was below 100 nM under setting [1] and below 100 nM under setting [2].

In the case of `CCOC(=O)C1=C2CC(NS(=O)(=O)C3CC3)CN2C(c2nccs2)=N[C@H]1c1ccc(F)cc1Br` (mixture of isomers) [Example 60], the EC50 reads like this: under setting [1], below 100 nM; under setting [2], below 100 nM.

With `CCOC(=O)C1=C2COC(=O)N2C(c2nccs2)=NC1c1ccc(F)cc1Br` (racemic) [Example 67], the EC50 under setting [1] was 100 to 500 nM and the EC50 under setting [2] is 100 to 500 nM.

With `CCOC(=O)C1=C2CCC(=O)N2C(c2nccs2)=NC1c1ccc(F)cc1Br` (racemic) [Example 68], the EC50 was 1000 to 5000 nM under setting [1] and 1000 to 5000 nM under setting [2].

`CCOC(=O)C1=C2CCCN2C(c2nccs2)=NC1c1ccc(F)c(F)c1` (racemic) [Example 69]: the EC50 lay in the range of 100 to 500 nM under setting [1] and 100 to 500 nM under setting [2].

As to `CCOC(=O)C1=C2CCCN2C(c2nccs2)=NC1c1cccc(F)c1Cl` (racemic) [Example 70], the EC50 reads like this: under setting [1], 100 to 500 nM; under setting [2], 100 to 500 nM.

As to `CCOC(=O)C1=C2CCCN2C(c2nccs2)=NC1c1ccc(F)cc1C` (racemic) [Example 71], the EC50 is, setting by setting: under setting [1], 100 to 500 nM; under setting [2], 100 to 500 nM.

Turning to `CCOC(=O)C1=C2CCCN2C(c2nccs2)=NC1c1ccc(F)cc1F` (racemic) [Example 72], the EC50 reads like this: under setting [1], 500 to 1000 nM; under setting [2], 500 to 1000 nM.

For the compound `CCOC(=O)C1=C2CCCN2C(c2nccs2)=NC1c1ccc(F)cc1` (racemic) [Example 73], the EC50 is 1000 to 5000 nM under setting [1] and 1000 to 5000 nM under setting [2].

Take `CCOC(=O)C1=C2CCCN2C(c2nccs2)=NC1c1cc(Cl)sc1Cl` (racemic) [Example 74]: the EC50 is 1000 to 5000 nM under setting [1] and 1000 to 5000 nM under setting [2].

In the case of `CCOC(=O)C1=C2CCCN2C(c2nccs2)=NC1(C)c1ccc(F)cc1` (racemic) [Example 75], the EC50 was in the range of 1000 to 5000 nM under setting [1] and 1000 to 5000 nM under setting [2].

Consider `CCOC(=O)C1=C2CCCN2C(c2ncc(F)cc2F)=NC1c1ccc(F)cc1Cl` (racemic) [Example 76], for which the EC50 under setting [1] lay within 1000 to 5000 nM and the EC50 under setting [2] was 1000 to 5000 nM.

As to `CCOC(=O)C1=C2CCCN2C(c2ccsn2)=NC1c1ccc(F)cc1Cl` (racemic) [Example 77], the EC50 runs as follows: under setting [1], 1000 to 5000 nM; under setting [2], 1000 to 5000 nM.

For the compound `CCOC(=O)C1=C2CCCN2C(c2nccn2C)=NC1c1ccc(F)cc1Cl` (racemic) [Example 78], the EC50 is 1000 to 5000 nM under setting [1] and 1000 to 5000 nM under setting [2].

As for `CCOC(=O)C1=C2CCCN2C(c2nc(C)cs2)=NC1c1ccc(F)cc1Cl` (racemic) [Example 79], the EC50 under setting [1] was in the range of 1000 to 5000 nM and the EC50 under setting [2] lay within 1000 to 5000 nM.

For the compound `COCOC(=O)C1=C2CCCN2C(c2nccs2)=NC1c1ccc(F)cc1Br` (racemic) [Example 80], the EC50 runs as follows: under setting [1], 1000 to 5000 nM; under setting [2], 1000 to 5000 nM.

With `O=C(OCC(F)F)C1=C2CCCN2C(c2nccs2)=NC1c1ccc(F)cc1Br` (racemic) [Example 81], the EC50 is 1000 to 5000 nM under setting [1] and 1000 to 5000 nM under setting [2].

As to `CCOC(=O)C1=C2CNCCN2C(c2nccs2)=NC1c1ccc(F)cc1Br` (racemic) [Example 83], the EC50 is 1000 to 5000 nM under setting [1] and 1000 to 5000 nM under setting [2].
